Holding throughout (assay type): functional, cell-based
Test [1] deals with Vero. In words: Cytotoxicity against Chlorocebus aethiops (African green monkey) Vero cells by MTT assay. The settings on record: Chlorocebus sabaeus. For orientation: Tetrazolium dyes change colour on reduction, which living cells bring about.
Test [2] relates to Erythrocyte. Briefly: Hemolytic activity in Homo sapiens (human) Erythrocyte after 30 min. The conditions noted are these: 0.5 h.
Test [3] has as its system HeLa. In words: Cytotoxicity against Homo sapiens (human) HeLa cells by MTT assay.

SMILES strings stand for the structures. In brackets after ≈: the same amount, converted by molar mass.

`Cc1cccc2c3c([nH]c12)-c1nc2ccc(Cl)cc2c(-c2ccccc2)c1CC3`: the IC50 in test [1] and in test [3] was greater than 100 mg/L in each case. For the same compound, in test [2], it took 458 mg/L (≈ 1160 µM) to reach a half-maximal effect (EC50).

On to `CC[C@@]1(O)C(=O)OCc2c1cc1n(c2=O)Cc2cc3ccccc3nc2-1` [CAMPTOTHECIN], for which the figures for the IC50 in test [1] and in test [3] were 58 mg/L (≈ 166 µM) and 0.28 mg/L (≈ 0.804 µM), respectively. The EC50 (as a rule, the concentration giving half of the maximal effect) in test [2] was found to be 430 mg/L (≈ 1230 µM).

As for `Cc1ccc2c3c([nH]c2c1)-c1nc2ccc(Cl)cc2c(-c2ccccc2)c1CC3`, the IC50 in test [1] and in test [3] was greater than 100 mg/L in each case. In test [2], this compound yielded an EC50 of 409 mg/L (≈ 1030 µM).

For the compound `Cc1ccc2[nH]c3c(c2c1)CCc1c-3nc2ccc(Cl)cc2c1-c1ccccc1`, the IC50 in test [1] and in test [3] was greater than 100 mg/L throughout. Moreover, the EC50 in test [2] was found to be 212 mg/L (≈ 537 µM).
